According to patent US10294202B2, “Pyrrolidinones as herbicides” (FMC Corporation, priority 2013, dated 2019):

Key:
[1] = test system: barnyardgrass; assay: Test A pre-/postemergence herbicide test; assay type: in vivo, Echinochloa crus-galli; conditions: for Barnyardgrass plant response rating: Preemergence, visual rating on 0 to 100 scale (0 no effect, 100 complete control)
Summary of the method: (§1)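 Both application timings used compounds in a non-phytotoxic solvent plus surfactant. Pre-emergence: soil sprayed directly after seeding into loam/sand. Post-emergence: foliage of 2–10 cm seedlings (1–2 leaves) sprayed. Injury rated ~10 days later, 0–100.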

[2] = test system: crabgrass, large; assay: Test A pre-/postemergence herbicide test; assay type: in vivo, Digitaria sanguinalis; conditions: for Crabgrass, Large plant response rating: Preemergence, visual rating on 0 to 100 scale (0 no effect, 100 complete control)
Summary of the method: as §1

[3] = test system: giant foxtail; assay: Test A pre-/postemergence herbicide test; assay type: in vivo, Setaria faberii; conditions: for Foxtail, Giant plant response rating: Preemergence, visual rating on 0 to 100 scale (0 no effect, 100 complete control)
Summary of the method: as §1

[4] = test system: morningglory; assay: Test A pre-/postemergence herbicide test; assay type: in vivo, Ipomoea spp.; conditions: for Morningglory plant response rating: Preemergence, visual rating on 0 to 100 scale (0 no effect, 100 complete control)
Summary of the method: as §1

[5] = test system: pigweed; assay: Test A pre-/postemergence herbicide test; assay type: in vivo, Amaranthus retroflexus; conditions: for Pigweed plant response rating: Preemergence, visual rating on 0 to 100 scale (0 no effect, 100 complete control)
Summary of the method: as §1

[6] = test system: velvetleaf; assay: Test A pre-/postemergence herbicide test; assay type: in vivo, Abutilon theophrasti; conditions: for Velvetleaf plant response rating: Preemergence, visual rating on 0 to 100 scale (0 no effect, 100 complete control)
Summary of the method: as §1

[7] = test system: wheat; assay: Test A pre-/postemergence herbicide test; assay type: in vivo, Triticum aestivum; conditions: for Wheat plant response rating: Preemergence, visual rating on 0 to 100 scale (0 no effect, 100 complete control)
Summary of the method: as §1

[8] = test system: corn; assay: Test A pre-/postemergence herbicide test; assay type: in vivo, Zea mays; conditions: for Corn plant response rating: Preemergence, visual rating on 0 to 100 scale (0 no effect, 100 complete control)
Summary of the method: as §1

[9] = test system: rice; assay: Test C flooded paddy test; assay type: in vivo, Oryza sativa; conditions: Flood
Description: Plant species in the flooded paddy test consisted of rice (Oryza sativa), sedge, umbrella (small-flower umbrella sedge, Cyperus difformis), ducksalad (Heteranthera limosa), and barnyardgrass (Echinochloa crus-galli) grown to the 2-leaf stage for testing. At time of treatment, test pots were flooded to 3 cm above the soil surface, treated by application of test compounds directly to the paddy water, and then maintained at that water depth for the duration of the test. Treated plants and controls were maintained in a greenhouse for 13 to 15 days, after which time all species were compared to controls and visually evaluated. Plant response ratings, summarized in Table C, are based on a scale of 0 to 100 where 0 is no effect and 100 is complete control. A dash (-) response means no test result.

[10] = test system: sedge, umbrella; assay: Test C flooded paddy test; assay type: in vivo, Cyperus difformis; conditions: Flood
Summary of the method: (§2)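 Visual ratings from 0, no effect, to 100, complete control, were made against untreated controls after 13–15 greenhouse days. Compounds had gone straight into paddy water 3 cm above the soil, kept at that depth, on 2-leaf-stage plants.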

[11] = test system: ducksalad; assay: Test C flooded paddy test; assay type: in vivo, Heteranthera limosa; conditions: Flood
Summary of the method: as §2

[12] = test system: barnyardgrass; assay: Test C flooded paddy test; assay type: in vivo, Echinochloa crus-galli; conditions: Flood
Summary of the method: as §2

[13] = Postemergence, 125 g ai/ha, 0 to 100 scale, 0 no effect, 100 complete control
[14] = Postemergence, 500 g ai/ha, 0 to 100 scale (0 no effect, 100 complete control)
[15] = preemergence, 500 g ai/ha, 0 to 100 scale (0 no effect, 100 complete control)
[16] = preemergence, 500 g ai/ha, 0 to 100 scale
[17] = 31 g ai/ha, scale of 0 to 100 where 0 is no effect and 100 is complete control, 13 to 15 days
[18] = 62 g ai/ha, scale of 0 to 100 where 0 is no effect and 100 is complete control, 13 to 15 days
[19] = 125 g ai/ha, scale of 0 to 100 where 0 is no effect and 100 is complete control, 13 to 15 days

O=C1NCC(c2cccc(F)c2)C1C(=O)Nc1ccccc1F (racemic) [Compound 1]
Plant response rating, Barnyardgrass [1, 13]: 50 | Plant response rating, Barnyardgrass [1, 14]: 80 | Barnyardgrass plant response rating ([1]; 125 g ai/ha): 30 | Plant response rating, Barnyardgrass [1, 15]: 90 | Plant response rating, Crabgrass, Large [2, 13]: 30 | Plant response rating, Crabgrass, Large [2, 14]: 80 | Crabgrass, Large plant response rating ([2]; 125 g ai/ha): 90 | Plant response rating, Crabgrass, Large [2, 16]: 90 | Plant response rating, Foxtail, Giant [3, 13]: 20 | Plant response rating, Foxtail, Giant [3, 14]: 60 | Foxtail, Giant plant response rating ([3]; 125 g ai/ha): 70 | Plant response rating, Foxtail, Giant [3, 16]: 90 | Plant response rating, Morningglory [4, 14]: 0 | Morningglory plant response rating ([4]; 125 g ai/ha): 0 | Plant response rating, Morningglory [4, 16]: 0 | Plant response rating, Pigweed [5, 14]: 0 | Pigweed plant response rating ([5]; 125 g ai/ha): 0 | Plant response rating, Pigweed [5, 16]: 0 | Plant response rating, Velvetleaf [6, 14]: 0 | Velvetleaf plant response rating ([6]; 125 g ai/ha): 0 | Plant response rating, Velvetleaf [6, 16]: 0 | Plant response rating, Wheat [7, 14]: 0 | Wheat plant response rating ([7]; 125 g ai/ha): 0 | Plant response rating, Wheat [7, 16]: 0 | Plant response rating, Corn [8, 13]: 0 | Plant response rating, Corn [8, 14]: 0 | Corn plant response rating ([8]; 125 g ai/ha): 0 | Plant response rating, Corn [8, 16]: 20 | Plant response rating, Rice [9, 17]: 0 | Plant response rating, Rice [9, 18]: 0 | Plant response rating, Rice [9, 19]: 0 | Plant response rating, Rice ([9]; 250 g ai/ha, scale 0 to 100): 0 | Plant response rating, Sedge, Umbrella [10, 17]: 0 | Plant response rating, Sedge, Umbrella [10, 18]: 0 | Plant response rating, Sedge, Umbrella [10, 19]: 0 | Plant response rating, Sedge, Umbrella ([10]; 250 g ai/ha, scale 0 to 100): 0 | Plant response rating, Ducksalad [11, 17]: 0 | Plant response rating, Ducksalad [11, 18]: 0 | Plant response rating, Ducksalad [11, 19]: 0 | Plant response rating, Ducksalad ([11]; 250 g ai/ha, scale 0 to 100): 0 | Plant response rating, Barnyardgrass [12, 17]: 0 | Plant response rating, Barnyardgrass [12, 18]: 0 | Plant response rating, Barnyardgrass [12, 19]: 0 | Plant response rating, Barnyardgrass ([12]; 250 g ai/ha, scale 0 to 100): 0

O=C1NCC(c2cccc(C(F)(F)F)c2)C1C(=O)Nc1ccccc1C(F)(F)F (racemic) [Compound 4]
Plant response rating, Barnyardgrass [1, 13]: 60 | Plant response rating, Barnyardgrass [1, 14]: 70 | Barnyardgrass plant response rating ([1]; 125 g ai/ha): 60 | Plant response rating, Barnyardgrass [1, 15]: 80 | Plant response rating, Crabgrass, Large [2, 13]: 60 | Plant response rating, Crabgrass, Large [2, 14]: 80 | Crabgrass, Large plant response rating ([2]; 125 g ai/ha): 90 | Plant response rating, Crabgrass, Large [2, 16]: 90 | Plant response rating, Foxtail, Giant [3, 13]: 60 | Plant response rating, Foxtail, Giant [3, 14]: 70 | Foxtail, Giant plant response rating ([3]; 125 g ai/ha): 80 | Plant response rating, Foxtail, Giant [3, 16]: 90 | Plant response rating, Morningglory [4, 14]: 30 | Morningglory plant response rating ([4]; 125 g ai/ha): 0 | Plant response rating, Morningglory [4, 16]: 0 | Plant response rating, Pigweed [5, 14]: 50 | Pigweed plant response rating ([5]; 125 g ai/ha): 0 | Plant response rating, Pigweed [5, 16]: 0 | Plant response rating, Velvetleaf [6, 14]: 0 | Velvetleaf plant response rating ([6]; 125 g ai/ha): 0 | Plant response rating, Velvetleaf [6, 16]: 0 | Plant response rating, Wheat [7, 14]: 50 | Wheat plant response rating ([7]; 125 g ai/ha): 60 | Plant response rating, Wheat [7, 16]: 70 | Plant response rating, Corn [8, 13]: 0 | Plant response rating, Corn [8, 14]: 50 | Corn plant response rating ([8]; 125 g ai/ha): 0 | Plant response rating, Corn [8, 16]: 0 | Plant response rating, Rice [9, 17]: 0 | Plant response rating, Rice [9, 18]: 0 | Plant response rating, Rice [9, 19]: 0 | Plant response rating, Rice ([9]; 250 g ai/ha, scale 0 to 100): 0 | Plant response rating, Sedge, Umbrella [10, 17]: 0 | Plant response rating, Sedge, Umbrella [10, 18]: 0 | Plant response rating, Sedge, Umbrella [10, 19]: 0 | Plant response rating, Sedge, Umbrella ([10]; 250 g ai/ha, scale 0 to 100): 0 | Plant response rating, Ducksalad [11, 17]: 20 | Plant response rating, Ducksalad [11, 18]: 30 | Plant response rating, Ducksalad [11, 19]: 80 | Plant response rating, Ducksalad ([11]; 250 g ai/ha, scale 0 to 100): 85 | Plant response rating, Barnyardgrass [12, 17]: 0 | Plant response rating, Barnyardgrass [12, 18]: 0 | Plant response rating, Barnyardgrass [12, 19]: 30 | Plant response rating, Barnyardgrass ([12]; 250 g ai/ha, scale 0 to 100): 40

N#Cc1ccccc1NC(=O)C1C(=O)NCC1c1ccc(Cl)c(Cl)c1 (racemic) [Compound 15]
Plant response rating, Barnyardgrass [1, 13]: 0 | Plant response rating, Barnyardgrass [1, 14]: 0 | Barnyardgrass plant response rating ([1]; 125 g ai/ha): 0 | Plant response rating, Barnyardgrass [1, 15]: 0 | Plant response rating, Crabgrass, Large [2, 13]: 0 | Plant response rating, Crabgrass, Large [2, 14]: 0 | Crabgrass, Large plant response rating ([2]; 125 g ai/ha): 60 | Plant response rating, Crabgrass, Large [2, 16]: 80 | Plant response rating, Foxtail, Giant [3, 13]: 0 | Plant response rating, Foxtail, Giant [3, 14]: 0 | Foxtail, Giant plant response rating ([3]; 125 g ai/ha): 20 | Plant response rating, Foxtail, Giant [3, 16]: 50 | Plant response rating, Morningglory [4, 13]: 0 | Plant response rating, Morningglory [4, 14]: 0 | Morningglory plant response rating ([4]; 125 g ai/ha): 0 | Plant response rating, Morningglory [4, 16]: 0 | Plant response rating, Pigweed [5, 13]: 0 | Plant response rating, Pigweed [5, 14]: 0 | Pigweed plant response rating ([5]; 125 g ai/ha): 0 | Plant response rating, Pigweed [5, 16]: 0 | Plant response rating, Velvetleaf [6, 13]: 0 | Plant response rating, Velvetleaf [6, 14]: 0 | Velvetleaf plant response rating ([6]; 125 g ai/ha): 0 | Plant response rating, Velvetleaf [6, 16]: 0 | Plant response rating, Wheat [7, 13]: 0 | Plant response rating, Wheat [7, 14]: 0 | Wheat plant response rating ([7]; 125 g ai/ha): 0 | Plant response rating, Wheat [7, 16]: 0 | Plant response rating, Corn [8, 13]: 0 | Plant response rating, Corn [8, 14]: 0 | Corn plant response rating ([8]; 125 g ai/ha): 0 | Plant response rating, Corn [8, 16]: 0 | Plant response rating, Rice [9, 18]: 0 | Plant response rating, Rice ([9]; 250 g ai/ha, scale 0 to 100): 0 | Plant response rating, Sedge, Umbrella [10, 18]: 0 | Plant response rating, Sedge, Umbrella ([10]; 250 g ai/ha, scale 0 to 100): 0 | Plant response rating, Ducksalad [11, 18]: 0 | Plant response rating, Ducksalad ([11]; 250 g ai/ha, scale 0 to 100): 0 | Plant response rating, Barnyardgrass [12, 18]: 0 | Plant response rating, Barnyardgrass ([12]; 250 g ai/ha, scale 0 to 100): 0
